From patent publication US7084136B2, “Drug composition antagonistic to both PGD2/TXA2 receptors” (Shionogi & Co., Ltd., priority 2000, dated 2006)

Experiments:
[1] = Change of plasma concentration of drug in rat (half life of the disappearance after i.v. administration); assay type: in vivo; conditions: Jcl-SD male rats, 0.5 to 2 mg/kg intravenously, unchanged compound
Description: Experiment 4 Change of Plasma Concentration of Drug in Rat
Compound (0.5 to 2 mg/kg) was administered intravenously to Jcl-SD male rats.

TXA2 receptor = target: T1, TXA2 receptor (Homo sapiens, UniProt P21731); test: Binding activity to TXA2 receptor ([3H](+)-S-145 sodium salt, human platelet membrane fraction); conditions: human platelet membrane fraction; 2 nM [3H](+)-S-145 sodium salt; read-out: Binding activity to TXA2 receptor in human platelet membrane fraction IC50
T1 construct: The human platelet membrane fraction was prepared in accordance with Experiment 1 (1); from tissue; host or cells: human platelet membrane fraction from blood of healthy volunteers
T1 sequence (P21731 1-343): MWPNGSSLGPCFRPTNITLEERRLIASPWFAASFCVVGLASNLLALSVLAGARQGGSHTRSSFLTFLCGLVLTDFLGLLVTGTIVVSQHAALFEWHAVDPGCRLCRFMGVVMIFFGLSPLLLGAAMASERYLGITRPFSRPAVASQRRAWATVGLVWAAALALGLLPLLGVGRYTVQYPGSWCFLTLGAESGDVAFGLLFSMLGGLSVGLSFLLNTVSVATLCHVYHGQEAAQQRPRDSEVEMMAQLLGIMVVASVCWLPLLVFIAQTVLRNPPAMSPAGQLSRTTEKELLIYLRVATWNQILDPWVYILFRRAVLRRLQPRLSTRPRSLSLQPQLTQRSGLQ
Description: Experiment 2 Binding Activity to TXA2 Receptor
(§1) (1) Preparation of Human Platelet Membrane Fraction
The human platelet membrane fraction was prepared in accordance with Experiment 1 (1).
(2) Binding to TXA2 Receptor
To a binding-reaction solution (50 mM Tris/HCl, pH 7.4, 10 mM MgCl2) (0.2 ml) were added the human platelet membrane fraction (0.05 mg) and 2 nM Sodium [^3H](+)-(5Z)-7-[3-endo-[(phenylsulfonyl)amino]bicyclo[2.2.1]hept-2-exo-yl]heptenoate (Japanese Patent Publication (Kokoku) No.79060/1993, hereinafter referred to as (+)-S-145 sodium salt) (26.4 Ci/mmol), and the mixture was reacted at room temperature for 90 min. After the reaction, the resultant mixture was filtered through a glass fiber filter paper and washed several times with cooled physiological saline, then the radioactivity retained on the filter paper was measured. The specific-binding ratio was calculated by subtracting the non-specific binding ratio (the radio activity similarly determined in the presence of 10 μM (+)-S-145 sodium salt) from the total binding. The inhibitory activity of each compound was expressed as the concentration required for 50% inhibition (IC50), which was determined by depicting a substitution curve by plotting the binding ratio (%) in the presence of each compound, where the binding ratio in the absence of a test compound is 100%.

PGD2 receptor [2] = target: T2, PGD2 receptor (Homo sapiens, UniProt Q13258); test: Binding activity to PGD2 receptor ([3H]PGD2, human platelet membrane fraction); conditions: human platelet membrane fraction; read-out: Binding activity to PGD2 receptor in human platelet membrane fraction IC50
T2 construct: A suspension adjusted to contain the platelets at a final concentration of 5×10^8/ml was warmed at 37° C; endogenous in cells; host or cells: washed human platelets from a healthy volunteer
T2 sequence (Q13258 1-359): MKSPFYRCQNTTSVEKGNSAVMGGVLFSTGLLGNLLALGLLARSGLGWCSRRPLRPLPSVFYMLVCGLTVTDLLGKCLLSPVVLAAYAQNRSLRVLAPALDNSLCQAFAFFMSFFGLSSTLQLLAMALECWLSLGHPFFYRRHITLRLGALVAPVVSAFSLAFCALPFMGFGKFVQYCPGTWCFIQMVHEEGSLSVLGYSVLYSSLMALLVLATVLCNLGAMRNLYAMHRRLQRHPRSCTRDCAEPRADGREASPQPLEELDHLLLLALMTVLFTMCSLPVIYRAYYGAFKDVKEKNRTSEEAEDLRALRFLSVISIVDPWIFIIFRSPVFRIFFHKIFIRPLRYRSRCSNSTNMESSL
Description: Experiment 1 Binding Activity to PGD2 Receptor
as §1
Blood was collected using a plastic syringe containing 3.8% sodium citrate from the vein of healthy volunteers (adult male and female), then put into a plastic test tube and mixed by slow-reversion. The sample was then centrifuged at 1800 rpm, for 10 min at room temperature, and the supernatant containing PRP (platelet-rich plasma) was collected. The PRP was re-centrifuged at 2300 rpm, for 22 min at room temperature to obtain platelets. The platelets were homogenized using a homogenizer (Ultra-Turrax) followed by centrifugation 3 times at 20,000 rpm, 10 min at 4° C. to obtain a platelet membrane fraction. After protein determination, the membrane fraction was adjusted to 2 mg/ml and preserved in a refrigerator at −80° C. until using for the binding test.
(2) Binding to PGD2 Receptor
To a binding-reaction solution (50 mM Tris/HCl, pH 7.4, 5 mM MgCl2) (0.2 ml) were added the human platelet membrane fraction (0.1 mg) and 5 nM [^3H]PGD2 (115 Ci/mmol), and the mixture was reacted at 4° C. for 90 min. After the reaction, the mixture was filtered through a glass fiber filter paper and washed several times with cooled physiological saline, then the radioactivity retained on the filter paper was measured. The specific-binding ratio was calculated by subtracting the non-specific binding ratio which is the radioactivity similarly measured in the presence of 10 μM PGD2 from the total binding. The inhibitory activity of each compound was expressed as the concentration required for 50% inhibition (IC50), which was determined by depicting a substitution curve by plotting the binding ratio (%) in the presence of each compound, where the binding ratio in the absence of a test compound is 100%.

PGD2 receptor [3] = target: T2, PGD2 receptor; test: Antagonistic activity against PGD2 receptor using human platelet (inhibition of PGD2-induced cAMP increase); assay type: cell-based; conditions: human platelet; 0.1 μM PGD2; read-out: Inhibitory activity for the increase of cAMP caused by PGD2 in human platelet IC50
Description: Experiment 3 Evaluation of Antagonistic Activity Against PGD2 Receptor
Receptor Using Human Platelet
Peripheral blood was collected from a healthy volunteer using a syringe in which 1/9 volume of a citric acid/dextrose solution was previously added. The sample was subjected to centrifugation at 1200 rpm for 10 min to obtain the supernatant (PRP: platelet rich plasma). The resultant PRP was washed 3 times with a washing buffer and the number of platelets was counted with a micro cell counter. A suspension adjusted to contain the platelets at a final concentration of 5×10^8/ml was warmed at 37° C., then subjected to the pre-treatment with 3-isobutyl-1-methylxanthine (0.5 mM) for 5 min. To the suspension was added a test compound diluted at various concentration, and 10 minutes later, 0.1 μM PGD2 was added to induce the reaction 2 minutes later, hydrochloric acid was added to terminate the reaction. The platelet was destroyed with an ultrasonic homogenizer. After centrifugation, the cAMP in the supernatant was determined by radioimmunoassay. PGD2 receptor antagonism of a drug was evaluated as follows: the inhibition rate regarding cAMP increased by the addition of PGD2 was determined at each concentration, and the concentration of the drug required for 50% inhibition (IC50) was calculated.

SMILES | half life of the disappearance [1] | IC50 (TXA2 receptor) | IC50 (PGD2 receptor [2]) | IC50 (PGD2 receptor [3])
O=C(O)COCCCC[C@H]1[C@@H]2CC[C@@H](C2)[C@@H]1NC(=O)c1ccc(S(=O)(=O)n2cccc2)s1 [I-7M-1a] | 26.3 min | – | – | –
O=C(O)CCC/C=C\C[C@H]1[C@@H]2CC[C@@H](C2)[C@@H]1NC(=O)c1ccc(S(=O)(=O)n2cccc2)s1 [I-1] | 9.4 min | 3 nM | 4.3 nM | 1.3 nM
CC1(C)[C@H]2C[C@H](C/C=C\CCCC(=O)O)[C@@H](NC(=O)c3ccc(Sc4cccs4)s3)[C@@H]1C2 [II-59] | 11.0 min | 14 nM | 0.1 nM | 24 nM
O=C(O)CCC/C=C\C[C@H]1[C@@H]2CC[C@@H](C2)[C@@H]1NC(=O)c1ccc(S(=O)(=O)c2cccs2)s1 [I-47] | – | 6.2 nM | 4.1 nM | 7 nM
Cc1ccc(Cc2ccc(C(=O)N[C@H]3[C@H]4CC[C@H](C4)[C@@H]3C/C=C\CCCC(=O)O)s2)s1 [I-129] | – | 52 nM | 11 nM | 22 nM
O=C(O)CCC/C=C\C[C@H]1[C@@H]2CC[C@@H](C2)[C@@H]1NC(=O)c1cc(Cc2cccs2)cs1 [I-88] | – | 78 nM | 7.6 nM | 4.7 nM
O=C(O)CCC/C=C\C[C@H]1[C@@H]2CC[C@@H](C2)[C@@H]1NC(=O)c1csc2c(Cc3ccoc3)cccc12 [I-170] | – | 27 nM | 0.92 nM | 17 nM
O=C(O)CCC/C=C\C[C@H]1[C@@H]2CC[C@@H](C2)[C@@H]1NC(=O)c1csc2c(Cc3ccsc3)cccc12 [I-169] | – | 32 nM | 0.61 nM | 26 nM
Cc1cccc(SCc2ccc(C(=O)N[C@H]3[C@H]4CC[C@H](C4)[C@@H]3C/C=C\CCCC(=O)O)s2)c1 [I-132] | – | 12 nM | 32 nM | 43 nM
O=C(O)CCC/C=C\C[C@H]1[C@@H]2CC[C@@H](C2)[C@@H]1NC(=O)c1ccc(SCc2cccs2)s1 [I-106] | – | 13 nM | 13 nM | 9.3 nM
O=C(O)CCC/C=C\C[C@H]1[C@@H]2CC[C@@H](C2)[C@@H]1NC(=O)c1csc2c(Cc3cccs3)cccc12 [I-168] | – | 34 nM | 0.46 nM | 29 nM
O=C(O)CCC/C=C\C[C@H]1[C@@H]2CC[C@@H](C2)[C@@H]1NC(=O)c1ccc(S(=O)(=O)c2ccsc2)s1 [I-80] | – | 5.2 nM | 6.6 nM | 39 nM
Cc1ccc(S(=O)(=O)c2ccc(C(=O)N[C@H]3[C@H]4CC[C@H](C4)[C@@H]3C/C=C\CCCC(=O)O)s2)s1 [I-82] | – | 1.8 nM | 32 nM | 53 nM
O=C(O)CCC/C=C\C[C@H]1[C@@H]2CC[C@@H](C2)[C@@H]1NC(=O)c1csc2c(Cc3ccccc3)cccc12 [I-143] | 4.7 min | 28 nM | 2.7 nM | 1.9 nM
O=C(O)CCC/C=C\C[C@H]1[C@@H]2CC[C@@H](C2)[C@@H]1NC(=O)c1ccc(S(=O)(=O)n2cccc2)cc1 [I-10] | – | 92 nM | 1.6 nM | 1.8 nM
